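GI50: concentration for 50% inhibition of growth. TGI denotes the concentration required for complete inhibition of growth.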
Tests used:
Test in all cases: NCI-60 cell line screen, 384-well format
[1] = system: OVCAR-4 ovarian
[2] = system: COLO 205 colon
[3] = system: CCRF-CEM leukemia
[4] = system: MOLT-4 leukemia
[5] = system: SW-620 colon
[6] = system: PC-3 prostate
[7] = system: SF-539 CNS
[8] = system: OVCAR-3 ovarian
[9] = system: U251 glioblastoma
[10] = system: A498 renal
[11] = system: NCI-H522 lung
[12] = system: DU-145 prostate
[13] = system: ACHN renal
[14] = system: HCT-15 colon
[15] = system: LOX IMVI melanoma
[16] = system: HOP-92 NSCLC
[17] = system: SNB-19 CNS
[18] = system: OVCAR-5 ovarian
[19] = system: SK-MEL-5 melanoma
[20] = system: HL-60(TB) leukemia
[21] = system: K-562 leukemia
[22] = system: HCT-116 colon
[23] = system: NCI/ADR-RES ovarian
[24] = system: UO-31 renal
[25] = system: MALME-3M melanoma
[26] = system: EKVX NSCLC
[27] = system: 786-0 renal
[28] = system: T-47D breast
[29] = system: MDA-MB-231 breast
[30] = system: SK-OV-3 ovarian
[31] = system: SN12C renal
[32] = system: NCI-H322M lung
[33] = system: CAKI-1 renal
[34] = system: KM12 colon
[35] = system: MDA-MB-468 breast
[36] = system: RPMI-8226 leukemia
[37] = system: MCF7 breast
[38] = system: MDA-MB-435 melanoma
[39] = system: SR leukemia
[40] = system: HOP-62 NSCLC
[41] = system: TK-10 renal
[42] = system: RXF 393 renal
[43] = system: HS 578T breast
[44] = system: IGROV1 ovarian
[45] = system: NCI-H460 NSCLC
[46] = system: A549 NSCLC
[47] = system: SK-MEL-2 melanoma
[48] = system: SF-268 CNS
[49] = system: NCI-H23 lung
[50] = system: SK-MEL-28 melanoma
[51] = system: BT-549 breast

COc1ccccc1S(=O)(=O)Nc1ccc2c(c1)CN(C)C(=O)N2
GI50 [1]: 0.0162 µM
TGI [1]: > 100 µM
GI50 [2]: < 0.01 µM
TGI [2]: 0.0626 µM
GI50 [3]: < 0.01 µM
TGI [3]: < 0.01 µM
GI50 [4]: < 0.01 µM
TGI [4]: 0.0195 µM
GI50 [5]: 0.0311 µM
TGI [5]: > 100 µM
GI50 [6]: < 0.01 µM
TGI [6]: > 100 µM
GI50 [7]: 0.0144 µM
TGI [7]: 0.0376 µM
GI50 [8]: 0.012 µM
TGI [8]: 0.0332 µM
GI50 [9]: 0.0267 µM
TGI [9]: 0.0822 µM
GI50 [10]: < 0.01 µM
TGI [10]: 60.7 µM
GI50 [11]: < 0.01 µM
TGI [11]: < 0.01 µM
GI50 [12]: 0.0202 µM
TGI [12]: 0.0581 µM
GI50 [13]: 0.0153 µM
TGI [13]: > 100 µM
GI50 [14]: 0.0126 µM
TGI [14]: 0.0469 µM
GI50 [15]: 0.0213 µM
TGI [15]: 0.0871 µM
GI50 [16]: < 0.01 µM
TGI [16]: 66.8 µM
GI50 [17]: 0.0198 µM
TGI [17]: 20 µM
GI50 [18]: 0.026 µM
TGI [18]: > 100 µM
GI50 [19]: < 0.01 µM
TGI [19]: 0.0129 µM
GI50 [20]: < 0.01 µM
TGI [20]: 0.0131 µM
GI50 [21]: < 0.01 µM
TGI [21]: 0.018 µM
GI50 [22]: 0.0145 µM
TGI [22]: 0.0773 µM
GI50 [23]: 0.012 µM
TGI [23]: 0.0271 µM
GI50 [24]: 0.0206 µM
TGI [24]: > 100 µM
GI50 [25]: < 0.01 µM
TGI [25]: > 100 µM
GI50 [26]: 0.0205 µM
TGI [26]: > 100 µM
GI50 [27]: 0.0167 µM
TGI [27]: 15.9 µM
GI50 [28]: 17.2 µM
TGI [28]: > 100 µM
GI50 [29]: 0.0324 µM
TGI [29]: > 100 µM
GI50 [30]: < 0.01 µM
TGI [30]: 7.04 µM
GI50 [31]: 0.0247 µM
TGI [31]: > 100 µM
GI50 [32]: 0.0188 µM
TGI [32]: > 100 µM
GI50 [33]: < 0.01 µM
TGI [33]: > 100 µM
GI50 [34]: 0.0188 µM
TGI [34]: 0.0714 µM
GI50 [35]: 0.0171 µM
TGI [35]: 0.0347 µM
GI50 [36]: 0.0195 µM
TGI [36]: 0.0373 µM
GI50 [37]: 0.0359 µM
TGI [37]: 12.3 µM
GI50 [38]: < 0.01 µM
TGI [38]: < 0.01 µM
GI50 [39]: < 0.01 µM
TGI [39]: < 0.01 µM
GI50 [40]: 0.0208 µM
TGI [40]: > 100 µM
GI50 [41]: < 0.01 µM
TGI [41]: > 100 µM
GI50 [42]: < 0.01 µM
TGI [42]: < 0.01 µM
GI50 [43]: < 0.01 µM
TGI [43]: 0.0192 µM
GI50 [44]: 0.0225 µM
TGI [44]: 73.6 µM
GI50 [45]: 0.0213 µM
TGI [45]: 0.0453 µM
GI50 [46]: 0.0331 µM
TGI [46]: > 100 µM
GI50 [47]: 0.0181 µM
TGI [47]: 0.0393 µM
GI50 [48]: 0.0203 µM
TGI [48]: 0.134 µM
GI50 [49]: 0.0163 µM
TGI [49]: 0.0537 µM
GI50 [50]: < 0.01 µM
TGI [50]: > 100 µM
GI50 [51]: < 0.01 µM
TGI [51]: 0.0324 µM
